Measured values from US5250700A, “Phenyl pyrazolidinones as bronchodilators and anti-inflammatory agents” (American Home Products Corporation, priority 1992, dated 1993).

system: PDE IV; assay: Inhibition of PDE IV isolated from canine tracheal muscle (cAMP metabolism); type: biochemical; settings: canine trachealis PDE IV, 1 μM 3H-cAMP, 10 μM CI-930, 30° C., pH 7.8; reduction expressed relative to 10 μM rolipram
Procedure: The following assay is employed to assess the ability of the compound of the invention to inhibit PDE IV. A solution containing PDE IV is prepared from canine tracheal muscle as follows: The dog is euthanized with an overdose of euthanasia while under anesthesia induced by a 33 mg/kg IV bolus of Nembutal. The trachealis muscle is removed, cleaned of connective tissue, and minced thoroughly. Three to four grams of tissue is then homogenized in Trim-HCl buffer (pH 7.8) using a Polytron. The homogenate is then centrifuged at 25,000×g (4° C.) for 30 minutes. The supernatant is decanted and filtered through four layers of gauze, and applied to a 40 cm×2 cm DEAE-Sepharose column that is equilibrated with Trim-HCl buffer (pH 7.8). The column is then washed with an additional 240 mL of buffer to remove unbound proteins. […] Each fraction is assayed for cAMP- and cGMP- metabolizing PDE activity. Fractions eluting at approximately 0.6 M Na-acetate, and containing CAMP but not CGMP metabolic activity are pooled and used as a PDE stock solution for assaying PDE IV inhibitory activity. […] CI-930 is included as an inhibitor of the cyclic GMP-sensitive, cyclic AMP-selectivePDE (PDE III) that is also present in the PDE IV stock solution when prepared as described above.

IC50 [nM] | SMILES
150 | COc1ccc(C2CC(=O)N(C(=O)NCc3cccs3)N2C)cc1OC1CCCC1 (stereo not shown) [Example 39, 3-(3-Cyclopentyloxy-4-methoxyphenyl)-2-methyl-5-oxo-pyrazolidine-1-carboxylic acid thiophen-2-yl methylamide]
190 | COc1ccc(C2CC(=O)N(C(=O)NCCc3cccn3C)N2C)cc1OC1CCCC1 (stereo not shown) [Example 40, 3-(3-Cyclopentyloxy-4-methoxyphenyl)-2-methyl-5-oxo-pyrazolidine-1-carboxylic acid 2-(1-methyl-1H-pyrrol-2-yl) ethylamide]
2400 | COc1ccc(C2CC(=O)N(C(=O)NCCN3CCOCC3)N2C)cc1OC1CCCC1 (stereo not shown) [Example 41, 3-(3-Cyclolpentyloxy-4-methoxyphenyl)-2-methyl-5-oxo-pyrazolidine-1-carboxylic acid 2-morlpholin-4-yl ethylamide]
210 | COc1ccc(C2CC(=O)N(C(=O)NCCCn3ccnc3)N2C)cc1OC1CCCC1 (stereo not shown) [Example 42, 3-(3-Cyclopentyloxy-4-methoxyphenyl)-2-methyl-5-oxo-pyrazolidine-1-carboxylic acid 3-imidazol-1-yl propylamide]
